# Assay results reported in patent US20060188937A1, “G-protein estrogen membrane receptor” (Board Of Regents, The University Of Texas System, priority 2004, published 2006).
# Entries after “also recorded” stand apart in the source; their conditions may differ.
# What was measured:
# [1] = test system: SKBR3 cells; details: cited from earlier work
# [2] = test system: SKBR3 cells; experiment: Hormone pretreatment of SKBR3 cells, E2 receptor binding to plasma membranes; format: cell-based, human; details: 200 nm for 16 hrs in FBS-free media
# [3] = test system: untransfected HEK293 cells; experiment: cAMP measurement, untransfected HEK293 cells; format: biochemical, human; details: 15 min treatment with 200 nm
# [4] = test system: untransfected HEK293 cells; experiment: [35S]GTPγS binding to membranes of untransfected HEK293 cells; format: biochemical, human; details: 100 nm
# Experimental: [^35S]GTPγ-S binding to cell membranes. Binding of [^35S]GTPγ-S to plasma membranes (˜10 μg protein) was assayed following the procedure of Liu and Dillon (30) with few modifications. Plasma membranes were incubated with 10 μM GDP and 0.5 nm [^35S]GTPγ-S (˜12,000 cpm, 1.0 Ci/mol) in […] Tris buffer ([…], 5 mM MgCl2, 1 mM CaCl2, 0.6 mM EDTA, 0.1% BSA, 50 mM Tris-HCl, pH 7.4) at 25° C. for 30 min in the presence of 100 nm of the test compounds. Nonspecific binding was determined by addition of 100 μM GTPγ-S. At the end of the incubation period 100 μl aliquots were filtered through Whatman GF/B glass fiber filters, followed by several washes and subsequent scintillation counting.
# [5] = molecular target: T1, wild-type GPR30 (Homo sapiens, UniProt Q99527); experiment: [35S]GTPγS binding to membranes of SKBR3 cells; format: biochemical; details: for agonist action on GPR30 / mER-mediated pathway: summary statements; for specific [35S]GTPγS binding (activation of G-proteins): 100 nm, SKBR3 cell membranes
# T1 construct: membranes of SKBR3 cells expressing wild-type GPR30; endogenous in cells; host or cells: SKBR3 (human breast cancer cells, ATCC)
# T1 sequence (Q99527 whole entry): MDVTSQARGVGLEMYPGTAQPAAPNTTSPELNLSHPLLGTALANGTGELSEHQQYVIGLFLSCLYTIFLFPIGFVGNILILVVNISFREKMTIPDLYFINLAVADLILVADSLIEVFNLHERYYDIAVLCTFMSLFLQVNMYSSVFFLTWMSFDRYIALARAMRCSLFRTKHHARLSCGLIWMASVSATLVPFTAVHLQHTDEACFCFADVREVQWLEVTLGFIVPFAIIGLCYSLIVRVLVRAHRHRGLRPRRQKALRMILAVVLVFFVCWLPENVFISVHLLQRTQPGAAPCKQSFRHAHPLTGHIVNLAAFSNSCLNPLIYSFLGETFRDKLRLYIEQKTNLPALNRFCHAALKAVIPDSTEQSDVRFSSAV
# Experimental: [^35S]GTPγ-S binding to cell membranes. Binding of [^35S]GTPγ-S to plasma membranes (˜10 μg protein) was assayed following the procedure of Liu and Dillon (30) with few modifications. […] Nonspecific binding was determined by addition of 100 μM GTPγ-S. At the end of the incubation period 100 μl aliquots were filtered through Whatman GF/B glass fiber filters, followed by several washes and subsequent scintillation counting.
# [6] = molecular target: T2, GPR30 (Homo sapiens, UniProt Q99527); experiment: Competitive binding against [3H]E2, plasma membranes of HEK293 cells transfected with GPR30
# T2 sequence (Q99527 whole entry): as above
# [7] = molecular target: T2, GPR30; details: for binding affinities to the receptor: summary statement; for affinity for the receptor in competitive binding: concentrations up to 1 μM
# [8] = molecular target: T2, GPR30; experiment: cAMP measurement (adenylyl cyclase activity), HEK293 cells transfected with GPR30; format: biochemical; details: for cAMP production / activation of stimulatory G-protein and upregulation of adenylyl cyclase activity: transfected cells; for cAMP production: FIG. 3F, 100 nm, 20 min; for activation of stimulatory G-protein and upregulation of adenylyl cyclase activity: discussion summary
molecule,measurement,setting,value
"C[C@]12CC[C@@H]3c4ccc(O)cc4CC[C@H]3[C@@H]1CC[C@@H]2O [E2, 17β-estradiol]",effective concentration (cAMP) previously shown,[1],1 nm
same,increase in receptor binding,[2],2.5 fold
same,"adenylyl cyclase activity, increase in cAMP content",[3],not in untransfected cells
same,specific [35S]GTPγS binding,[4],not to membranes of untransfected cells
"C[C@]12CC[C@@H]3c4ccc(O)cc4C[C@@H](CCCCCCCCC[S+]([O-])CCCC(F)(F)C(F)(F)F)[C@H]3[C@@H]1CC[C@@H]2O (stereo partly shown) [ICI 182, 780]",agonist action on GPR30 / mER-mediated pathway,[5],estrogen agonists
same,agonist action on GPR30 / mER-mediated pathway,"[5]; listed as ICI 182,780",mimic the actions of E2
same,binding affinity in competitive binding,[6],significant binding affinity
same,"relative binding affinity (RBA), % that of E2",[7]; SKBR3 membranes,approximately 10%
same,decrease in RBA to GPR30 versus estradiol-17β,[7]; discussion summary,only minor decreases
same,binding affinities to the receptor,[7],high binding affinities
same,"adenylyl cyclase activity, increase in cAMP content","[8]; transfected HEK293 cells, 15 min treatment with 200 nm",significantly increased
same,cAMP production,[8],significantly increased cAMP
same,"adenylyl cyclase activity, increase in cAMP content",[3],not in untransfected cells
"CC(=O)[C@H]1CC[C@H]2[C@@H]3CCC4=CC(=O)CC[C@]4(C)[C@H]3CC[C@]12C [P4, progesterone]",increase in receptor binding,[2],9 fold
same,affinity for the receptor in competitive binding,[7]; SKBR3 membranes,no affinity
C[C@]12CCC(=O)C=C1CC[C@@H]1[C@@H]2[C@@H](O)C[C@@]2(C)[C@H]1CC[C@]2(O)C(=O)CO [cortisol],affinity for the receptor in competitive binding,[7]; SKBR3 membranes,no affinity
"CC/C(=C(/CC)c1ccc(O)cc1)c1ccc(O)cc1 [diethystilbestrol, diethylstilbestrol]",displacement of [3H]E2,[6]; concentrations up to 10 μM,failed to significantly displace
C[C@]12CC[C@@H]3c4ccc(O)cc4CC[C@H]3[C@@H]1C[C@@H](O)[C@@H]2O [estriol],specific [35S]GTPγS binding (activation of G-proteins),[5],failed to activate the G-proteins
same,cAMP production,[8],did not alter cAMP production
same,activation of stimulatory G-protein and upregulation of adenylyl cyclase activity,[8],inactive
C[C@]12CC[C@@H]3c4ccc(O)cc4CC[C@H]3[C@@H]1CCC2=O [estrone],activation of stimulatory G-protein and upregulation of adenylyl cyclase activity,[8],inactive
"ClC(Cl)=C(c1ccc(Cl)cc1)c1ccccc1Cl [o,p′-DDE]",specific [35S]GTPγS binding (activation of G-proteins),[5],significantly increased
same,agonist action on GPR30 / mER-mediated pathway,[5],agonist; also recorded: mimic the actions of E2
same,binding affinity in competitive binding,[6],significant binding affinity
same,displacement of [3H]-E2 binding,"[7]; SKBR3 membranes, concentrations 0.1-1 μM",significant displacement
same,binding affinities to the receptor,[7],high binding affinities
same,cAMP production,[8],significantly increased cAMP
CC/C(=C(\c1ccccc1)c1ccc(OCCN(C)C)cc1)c1ccccc1 [tamoxifen],specific [35S]GTPγS binding (activation of G-proteins),[5],significantly increased
same,agonist action on GPR30 / mER-mediated pathway,[5],estrogen agonists; also recorded: mimic the actions of E2
same,binding affinity in competitive binding,[6],significant binding affinity
same,cAMP production,[8],significantly increased cAMP
C[C@]12CC[C@H]3[C@@H](CCC4=CC(=O)CC[C@@]43C)[C@@H]1CC[C@@H]2O [testosterone],affinity for the receptor in competitive binding,[7]; SKBR3 membranes,no affinity
"C[C@H]1CCCC(=O)CCC/C=C/c2cc(O)cc(O)c2C(=O)O1 [zearalonone, zearalenone]",binding affinity in competitive binding,[6],significant binding affinity
cholera toxin,effect on estrogen-induced increase in cAMP concentrations,[8],blocked
